Columns and labels:
mouse platelets = conditions: in words
[1] = system: laser-induced thrombi in cremaster arterioles; format: in vivo
Text: A preferred animal model involves intravital microscopy of laser-induced thrombi. The method is described by Rosen et al., 2001, Am J Pathol 158, 1613–1622, which is incorporated herein by reference. Minor variations of that method were employed as described below.
Experimental mice are pre-anesthetized and surgically prepared. A tracheal tube is placed to facilitate breathing and the jugular vein is canulated to allow for maintenance of anesthetic and introduction of compound. The cremaster muscle is then exteriorized. The muscle is affixed over a glass slide, allowing illumination from below. A steady drip of a sodium-bicarbonate buffered salt solution is maintained throughout the experiment to keep the exposed muscle moist. Blood flow in the muscle is visualized using a 40× water immersion lens and epi-illuminated with an appropriately filtered light source. Alexa 488-labeled anti-mouse CD41 antibody is injected through the jugular canulus to label platelets in vivo.
Thrombosis is initiated by damaging the vessel wall (of a 30 μm vessel) with a laser pulse from a MicroPoint LASER attached to the microscope. A LASER pulse is delivered, causing damage in an area smaller than 1 μm. The recruitment of platelets to the thrombus is then monitored by the accumulation of (activated) Alexa 488-labeled platelets at the ablation site using fluorescence microscopy, and the process is recorded digitally. The method thus permits in vivo analysis of platelet activation as measured by platelet aggregation and thrombosis.
The degree of embolization in an untreated mouse can be quantified using software for image analysis, e.g., BioQuant True Color Windows (Biometrics, Nashville, Tenn.), as described in Rosen et al., 2001, supra. The software package permits the determination of the “integrated optical density” or IOD of the thrombus.
Using quantitative intravital fluorescence videomicroscopy with high temporal resolution (111 images/second), the effect of PDE3 inhibition on the platelet recruitment into thrombi was directly observed over time. Platelets were fluorescently labeled by infusing rat-anti-mouse CD41 and Alexa 488-anti-rat IgG through a cannulated jugular vein. The cremaster microvasculature was exposed and mapped and suitable arteriole segments were selected for laser-induced injury. A series of control injuries were generated prior to infusion of the inhibitory compound. The power and the number of laser pulses required to generate each thrombus was recorded. Platelet accumulation to the thrombi following laser ablation was recorded using digital videomicroscopy. The thrombus total fluorescence in each frame of the videos was analyzed using Slidebook software for digital videomicroscopy. The pyridazinone compound was then infused. Following a 15 minute incubation, a series of experimental injuries were generated 250 μm proximal, with relationship to blood flow, of the first injury and the resultant thrombi were recorded. The power and the number of pulses required to induce the control thrombus was used to induce the experimental thrombus. The control and experimental thrombi constituting a pair were compared for statistical analysis. The total fluorescence intensity of the thrombi before and after the infusion of pyridazinone compound was recorded.
Images from a representative experiment of the recruitment of fluorescently-labeled […] platelets into a growing thrombus over time is shown in FIG. 9A.

platelets [2] = experiment: agonist-induced platelet granule secretion (P-selectin expression, flow cytometry); format: cell-based, human
Procedure: In order to assay platelet activation by cell surface marker expression, fresh PRP is isolated from donors who have not ingested aspirin for two weeks prior to donation. PRP (40 μl) is incubated with known or suspected inhibitor in DMSO or DMSO alone for 15 min. The sample is then incubated with the indicated agonist (e.g., SFLLR) for 10 min. Following incubation of the sample with the indicated agonist, 10 μl of reaction mixture is transferred to 5 μl of phycoerythrin (PE)-conjugated AC 1.2 anti-P-selectin antibody (for assessment of P-selectin surface expression) or fluorescein isothiocyanate (FITC)-conjugated PAC-1 antibody (for assessment of GPIIbIIIa activation). PBS (500 μl) is added to the sample after a 20 min incubation and the platelets are analyzed immediately by flow cytometry. Flow cytometry can be performed using, for example, a Becton-Dickinson FACSCalibur flow cytometer or its equivalent. Fluorescent channels are set at logarithmic gain. Ten thousand particles are acquired for each sample. A 530/30 band pass filter is used for FL-1 fluorescence. A 585/42 band pass filter is used for FL-2 fluorescence. FITC is measured in the FL-1 channel and PE is measured in the FL-2 channel. Data are analyzed using, for example, CellQuest software on a Macintosh PowerPC, or their equivalents. […]
Each of the compounds was tested for inhibition of platelet activation in response to the agonists SFLLR (a thrombin mimic), U46619 (a thromboxane A2 mimic), ADP and the phorbol ester PMA.
Compounds were also tested by flow cytometry for the inhibition of SFLLR-induced GPIIbIIIa activation and P-selectin expression. In these experiments, freshly obtained PRP was prepared from healthy volunteers who had not ingested aspirin for two weeks prior to donation. Forty μl of PRP was incubated with inhibitor in DMSO or DMSO alone for 15 min. The sample was then incubated with the indicated agonist for 10 min. Following incubation of the sample with the indicated agonist, 10 μl of reaction mixture was transferred to 5 μl of PE-conjugated AC1.2 anti-P-selectin antibody (for assessment of P-selectin surface expression) or FITC-conjugated PAC-1 antibody (for assessment of GPIIbIIIa activation). PBS (500 μl) was added to the sample after a 20 min incubation and the platelets were analyzed immediately by flow cytometry. Flow cytometry was performed using a Becton-Dickinson FACSCalibur flow cytometer. Fluorescent channels were set at logarithmic gain. Ten thousand particles were acquired for each sample. A 530/30 band pass filter was used for FL-1 fluorescence. A 585/42 band pass filter was used for FL-2 fluorescence. FITC was measured in the FL-1 channel and PE was measured in the FL-2 channel. Data were analyzed using CellQuest software on a MacIntosh PowerPC.
Compound was tested for its ability to inhibit SFLLR-, U46619-, ADP-, PMA-, and collagen I-induced platelet α-granule secretion. In these assays, platelets were incubated with increasing doses of compound for 30 minutes. The platelets were then exposed to a maximally stimulatory dose of the indicated agonist. P-selectin surface expression was analyzed by flow cytometry using phycoerythrin-anti-P-selectin to monitor for α-granule secretion.

[3] = system: PGE1-induced cAMP levels in platelets; experiment: augmentation of PGE1-induced cAMP levels in platelets; format: cell-based, human; conditions: in words
Procedure: (A) Compound was tested for its ability to inhibit SFLLR-, U46619-, ADP-, PMA-, and collagen I-induced platelet α-granule secretion. (B) The effect of the compound on PGE1-stimulated cAMP elevation was analyzed. Platelets were incubated with increasing doses of pyridazinone compound for 30 minutes prior to the 2 minute incubation with PGE1. Platelets were subsequently lysed and cAMP level was assayed using a commercially available ELISA kit (Liao et al., 1998, Eur J Pharmacol 349, 107–14). […] Error bars represent mean ±1 SD (n=4), *P<0.001.
One frequent target of anti-platelet agents is phosphodiesterase III (PDE III). […] The assay is performed as described by Liao et al., 1998, Eur J Pharmacol 349,107–114, incorporated herein by reference. Briefly, aliquots of PRP are exposed to increasing concentrations of the agent for 20 minutes. The PRP is then challenged with 1 μM PGE1 for 2 min The reaction is stopped by adding 10 mM EDTA, followed immediately by boiling for 2 min. The mixture is cooled to 4° C. and the precipitated protein is pelleted. cAMP content in the supernatant is quantitated using an enzyme immunoassay kit (Pharmacia-Amersham, NJ) according to the instructions of the manufacturer.
In order to assess whether the compounds useful according to the invention might act through inhibition phosphodiesterase III, each was tested for its effect on PGE1-induced cAMP increase. Determination of platelet cAMP levels was performed as described by Liao et al., 1998, supra. Aliquots of PRP were exposed to increasing concentrations of the indicated compounds for 20 min. PRP was then challenged with 1 μM PGE1 for 2 min. The reaction was stopped with the addition of 10 mM EDTA followed immediately by boiling for 2 min. The mixture was then cooled to 4° C. and the precipitated protein was pelleted. Cyclic AMP content in the supernatant was then quantified using an enzyme immunoassay kit (Pharmacia-Amersham, NJ) according to the instructions of the manufacturer.

[4] = system: platelet protein palmitoylation; experiment: incorporation of [3H]-palmitate into platelet proteins; format: cell-based; conditions: 100 μM compound; 20 μM or 200 μM SFLLRN; in words
Procedure: Platelets were labeled with [^3H]-palmitate for 2 hours in the absence (lanes 1, 2, and 3) or presence (lanes 4, 5, and 6) of 100 μM JF081204{5C} for 2 hours. Labeled platelets were then incubated with 0 μM ([…]), 20 μM (lanes 2 and 5), or 200 μM SFLLRN (lanes 3 and 6). Platelet samples were lysed, separated by SDS-PAGE, Western blotted, and visualized with a tritium imager screen (Panel a). The activation of platelets by SFLLRN led to an increase incorporation of [^3H]-palmitate into platelet proteins, whereas the presence of JF081204{5C} inhibited this activation-dependent [^3H]-palmitate incorporation (Panel b). Western blot membrane from panel (a) was stained with Ponceau S to visualize proteins in the platelet lysates.
The incorporation of [^3H]-palmitate into platelet intracellular proteins was examined to determine the effect of JF081204{5C} on platelet protein palmitoylation. […] Exposure of platelets to either 20 μM or 200 μM SFLLRN increased the intensity of the labeling. Incubation of platelets with 100 μM of JF081204 {5C} inhibited the increase in [^3H]-palmitate incorporation induced by either 20 μM or 200 μM SFLLRN.

platelets [5] = experiment: platelet aggregation (aggregometer); format: cell-based, human; conditions: in words
Procedure: Platelet aggregation profiling is a standard methodology, generally performed with an instrument adapted for that express purpose, for example, a Platelet Aggregation Profiler (BioData, Horsham, Pa.). The assays can generally be performed according to the instructions of the manufacturer. As exemplary conditions, 400 μl of PRP are incubated with inhibitor for 15 minutes at room temperature. The sample is then incubated for 3 minutes at 37° C. in the Platelet Aggregation Profiler. The instrument is calibrated with platelet poor plasma serving as a blank. A baseline tracing is established by monitoring the light transmittance of PRP being stirred at 1200 rpm. Aggregation is initiated by the addition of SFLLR (200 μM) and the percent of platelet aggregation is measured by the change in light transmittance for 6 minutes following addition of SFLLR.

[6] = system: patients suffering intermittent claudication; conditions: cited from earlier work

9-methylene-4-(alkyl)-2,3,4,9-tetrahydro-1H-cyclopenta(b)quinoline
activation of mouse platelets by several platelet agonists (mouse platelets): inhibits activation of mouse platelets | thrombosis following laser-induced injury (reduction) ([1]; bolus 6 mg/kg/5 min then continuous infusion 3 mg/kg/90 min, 36 thrombi in 5 mice): greater than 80%

Cn1cc(/C=N/NC(N)=O)c2ccccc21 [2-[(1-methyl-1H-indol-3-yl)methylene]-hydrazinecarboxamide]
effect on ADP-induced activation (platelets [2]; ADP-induced, in words): little effect | effect on PMA-induced platelet activation (platelets [2]; in words): little effect | effect on PGE1-stimulated cAMP levels in platelets [3]: augmented cAMP levels

CCCCCn1c2c(c(=N)c3ccccc31)CCC2 [JF081204{5C}]
IC50s for U46619-, A23187-, and PMA-induced P-selectin expression less potent than SFLLR (platelets [2]; U46619, A23187, PMA vs SFLLR): at least 150 fold | SFLLRN activation-dependent [3H]-palmitate incorporation into platelet proteins [4]: inhibited | inhibition of U46619- and collagen-induced platelet aggregation (platelets [5]): not effective | median of maximum platelet accumulation compared to absence of compound ([1]; 3 mg/kg (P<0.002) and 6 mg/kg (P<0.02), in words): statistically significant decrease | median stabilized platelet accumulation ([1]; 3 mg/kg (P<0.01) and 6 mg/kg (P<0.001), in words): dose-dependent inhibition | delay in onset of platelet accumulation (time to 50% maximum platelet accumulation) ([1]; 1, 3 and 6 mg/kg, in words): statistically significant delay

CC1CC(=O)NN=C1c1ccc(Cl)cc1 (stereo not drawn) [Structure 9, 6-(4-chlorophenyl)-5-methyl-4,5-dihydro-5 methyl-3(2H)-pyridazinone]
effect on PMA-induced platelet activation (platelets [2]; in words): did not inhibit

Nc1cc2cccnc2c2ncccc12 [[1,10]Phenanthroline-5-ylamine, [1,10] Phenanthroline-5-ylamine]
effect on PMA-induced platelet activation (platelets [2]; in words): did not inhibit | effect on PGE1-stimulated cAMP levels in platelets [3]: failed to augment

O=C1CCc2cc(OCCCCc3nnnn3C3CCCCC3)ccc2N1 [cilostazol]
increase of the distance of pain free walking [6]: up to 59%

From patent publication US7166612B2, “Methods for reducing platelet activation platelet aggregaton or thrombosis” (Beth Israel Deaconess Medical Center, priority 2001, dated 2007)
